Experimental data taken from patent US5716982A, “Retinoids and methods of use of same” (priority 1995, dated 1998).
Read-outs that look alike come from different tables or passages of the source. One block for each compound: values may come before it.

Columns and labels:
fetus absorption in mice = assay: Fetus absorption in mice (anti-teratogenicity); type: in vivo, mouse
Experimental: (§1) Female mice were examined by vaginal smear the morning after being caged with male mice, and if sperm or a vaginal plug was discovered, then the mice were determined to be pregnant. The retinoids were administered at the dosage indicated starting on the seventh day of pregnancy and continued once a day for the next ten days. On the 20th day after the female mice were determined to be pregnant, they were sacrificed by cervical dislocation. Both sides of the uterus were checked and the number of living embryos, dead embryos, and absorbed embryos were counted. The living embryos were further examined for bone abnormalities.

[1] = test system: bone abnormalities in mouse fetus; assay: Bone abnormalities in mouse fetus (anti-teratogenicity); type: in vivo
Experimental: as §1
After the embryos became transparent, they were dissected and their skeletons were checked by observation under a microscope.

[2] = test system: human acute myeloid leukemia (AML), neuroblastoma, teratocarcinoma, melanoma, and rat rhabdomyosarcoma cells; conditions: Smith et al. 1992; cited from earlier work
[3] = test system: Human promyelocytic leukemia HL-60 cells; assay: Cell differentiation of HL-60 cells, nitroblue tetrazolium (NBT) reduction; type: cell-based; conditions: Homo sapiens
Experimental: Human promyelocytic leukemia HL-60 cells were cultured in RPMI-1640 medium supplemented by 10% heat-inactivated calf serum and 100 U/ml of penicillin plus 100 μg/ml of streptomycin. The flasks containing cells and medium were incubated in an incubator with 5% CO2 at 37° C. Log phase cells were seeded into the medium at a concentration of 1.2×10^5to 1.4×10^5 cells per ml and cultured in flasks containing 5 ml of medium. Each group consisted of three flasks. Different concentrations of coumarin-retinoids were added. At intervals following the addition of coumarin-retinoids to the cultures, a small portion of cells was removed and live cells were counted under a light microscope using a dye-exclusionmethod with trypan blue. Cell differentiation was judged in terms of morphology and nitroblue tetrazolium (NBT) reduction.
For a determination of NBT reducing activity, a portion of the coumarin-retinoid-treated cells was removed at intervals following treatment and centrifuged. After centrifugation, 0.5 ml of 0.1% NBT (containing 100 ng TPA) was added to each tube. The contents of the test tubes were then incubated for 1 hour at 37° C. Cell smears were prepared from the cell sediment and stained using the Wright-Giemsa technique. For each smear prepared, 200 cells were isolated for examination under a light microscope with an oil immersion lens. Cells stained with blue-black granules were considered NBT-positive cells. The 50% differentiation or effective concentration (ED50 or EC50) is shown in terms of molar (M) concentration of the […] tested.
(§2) The protocols of Examples 14 and 21 were used, for the NBT and MTT assays, respectively.

[4] = test system: lipid peroxidation of rat liver microsome; assay: Fe/Cys induced lipid peroxidation of rat liver microsome (anti-oxidation); type: biochemical; conditions: n = 3
Experimental: Lipid peroxidation was induced by adding 1 mM FeSO4 and 10 mM cysteine to the microsome fraction of rat liver with the incubations being carried out at 37° C. for 30 minutes in a reaction mixture containing 10 mM phosphate buffer (pH 7.4). The reaction was terminated by the addition of 0.3 ml of 20% trichloroacetic acid solution. Thiobarbituric acid was then added and the mixture was boiled for 10 minutes. After cooling the test tubes under running tap water, the optical density at 532 nm was measured. Lipid peroxidation in both the treated groups and the control group was expressed in nmol MDA/mg protein. The percentage inhibition indicates the anti-oxidation properties of the coumarin retinoids tested.

HL-60 cells = assay: MTT assay in HL-60 cells; type: cell-based, human; conditions: Homo sapiens, MTT
Experimental: (§3) Human cancer cell lines (KB, A2780, MCF-7, HL-60, A549) were used. For a monolayer culture, 0.5 ml of trypsin solution ([…]) was added to the flasks for digestion. Microtiter plates (96 well) were used for the cell culture and 200 μl of cell suspension (1200 tumor cells) were placed in each well and incubated at 37° C. for 24 hours. Following the addition of the test compound, the control and treated flasks were placed in a CO2 incubator for 5 day culture. For the MTT assay, 200 μl of MTT solution (5 mg in 10 ml of phosphate buffer) plus the medium were added and incubated for another 4 hours. Following incubation, the supernatant was discarded and 200 μl of DMSO was added to each well. With a mild agitation the OD values were determined by the MR 700 Elisa at 570 nm (reference wavelength was 450 nm). The ED50 of the compound and tumor cell survival rate [formula] as percent inhibition were calculated.
as §2

[5] = test system: Ornithine decarboxylase (ODC); assay: Croton oil induced ornithine decarboxylase (ODC) activity in mouse epidermis; type: in vivo; conditions: single dose pretreatment, FIG. 1 (x±SD, n=3)
Experimental: ICR mice (6-8 weeks old) were pretreated with a single dose of coumarin retinoid. On the third day, the animals received a topical application of 0.2 ml of 1% croton oil in acetone. All animals were sacrificed five hours after the croton oil treatment and the epidermis was separated by a brief heat treatment at 52° C. for 30 seconds and minced in a blender. The cell suspension and broth were separated by a centrifugation at 30,000×g for 30 seconds and the supernatant was obtained. Ornithine decarboxylase (ODC) enzyme activity was determined by measuring the release of CO2 from L-(^14 C)-ornithine and expressed as nmole CO2 /30 min/mg protein and the results for coumarin retinoid I-10 and I-6 are shown in FIG. 1. […] ODC activity is a critical parameter for monitoring cancer chemoprevention or promotion.

[6] = test system: Salmonella typhimurium strain TA100; assay: Anti-mutagenicity (Ames), MMS-induced his+ revertants, TA100; type: cell-based; conditions: MMS 0.5 μl/plate; for his+ -revertants/per plate, TA100: n = 3
Experimental: (§4) An antimutagenicity assay was conducted according to the method developed by Ames et al. using Salmonella typhimurium strains TA 102 and TA 100 and mammalian microsomal enzymes. Beta-naphthoflavone and phenobarbital-induced rat liver supernatant (9000×g S-9 fraction) was used as the enzyme source for metabolic activation. The night before the experiment, certified bacterial solution (assessed for its biological characteristics and donated by Professor Ames) was inoculated into petri dishes. The petri dishes were then incubated for 15 hours at 37° C. From each petri dish, 0.1 ml of the bacterial solution was removed and added to sterile test tubes. To these test tubes, 0.1 ml of different concentrations of coumarin retinoids and 0.5 ml of either S-9 mixed solution or phosphate buffer were then added. The final solution for each test tube was incubated in a water bath at 37° C. for 20 minutes before adding 2 ml of agar solution. After thorough mixing, the solution was transferred into petri dishes and incubated once again at 37° C. for 48 hours. After incubation, the number of colonies in each petri dish were counted. The revertant numbers of the bacteria in control and treated groups were compared and the inhibition rate was calculated.

[7] = test system: Salmonella typhimurium strain TA102; assay: Anti-mutagenicity (Ames), MMS-induced his+ revertants, TA102; type: cell-based; conditions: MMS 0.5 μl/plate; for his+ -revertants/per plate, TA102: n = 3
Experimental: as §4

chondrosarcoma in rats = assay: Growth of transplanted chondrosarcoma in rats; type: in vivo, rat
From the text: Transplantable chondrosarcomas obtained from Dr. Trown, Hoffman--La Roche Institute of Molecular Biology and Wistar rats obtained from the Breeding Center of Experimental Animals, Chinese Academy of Medical Sciences were used. According to the routine transplantation protocol as described in Cancer Treatment Reports 60(11):1647-1653 (1976) where the small pieces of chondrosarcoma tumor were implanted subcutaneously in the right inguinal region of rats using a trocar. Tumor-bearing rats were randomized to a control group and a treated group. Each group consisted of ten rats. The compound was given orally for 12 days at the indicated dosage. Sixty days after transplantation, the rats were sacrificed and the tumor weight was determined. The inhibition rate was calculated according to the following formula: [formula]

HCT-8 cell line = assay: MTT assay in HCT-8 cells; type: cell-based; conditions: Homo sapiens, HCT-8, 120 h; read-out: MTT ED50
A2780 cell line = assay: MTT assay in A2780 cells; type: cell-based; conditions: Homo sapiens, A2780, 120 h; read-out: MTT ED50
Experimental: as §3, §2

KB cell line = assay: MTT assay in KB cells; type: cell-based; conditions: Homo sapiens, 120 h, read-out: MTT ED50
Experimental: as §3, §2

BEL 7402 cell line = assay: MTT assay in BEL 7402 cells; type: cell-based; conditions: Homo sapiens, Bel-7402, 120 h; Bel7402; read-out: MTT ED50
[8] = Preuss-Ueberschar et al. 1984; cited from earlier work
melanoma cell growth = conditions: Jing et al. 1992; cited from earlier work
[9] = NBT reduction, 50% differentiation, HL-60 (Table 2), read-out: EC50
[10] = HL-60 (Table 16), read-out: NBT

SMILES: CC1=C(/C=C/C(C)=C/C=C/C(C)=C/C(=O)O)C(C)(C)CCC1 [All Trans RA, all-trans-retinoic acid, reference compound]
Implanted Number (fetus absorption in mice; 15 mg/kg, 15 pregnant mice): 186
Delayed Calcification, Occipital number/fetus number ([1]; 10 mg/kg): 16/16
Delayed Calcification, Sternum number/fetus number ([1]; 10 mg/kg): 16/16
Cleft Palate (%) ([1]; 15 mg/kg): 48%
Delayed Calcification (%), Occipital ([1]; 15 mg/kg): 96.0%
Delayed Calcification (%), Sternum ([1]; 15 mg/kg): 71.0%
Delayed Calcification, Occipital delay/fetus ([1]; 101 mg/kg (so in the source)): 6/16
Delayed Calcification, Sternum delay/fetus ([1]; 101 mg/kg (so in the source)): 16/16
cell differentiation [2]: induces cell differentiation in some human acute myeloid leukemia (AML), neuroblastoma, teratocarcinoma, melanoma, and rat rhabdomyosarcoma cells

EC50 [3, 9]: 280 nM
IC50 (HL-60 cells; 120 h, HL-60 (Table 12), read-out: ED50 (the source's name)): 8.5 µM
SMILES: CC(=O)c1cc2ccc(OC(=O)/C=C(C)/C=C/C=C(C)/C=C/C3=C(C)CCCC3(C)C)c(C(=O)O)c2oc1=O [Compound I-5]
Lipid Peroxidation ([4]; 1 μM): 2.19 ± 0.13 μM MDA/mg protein
inhibition at 10 µM (HL-60 cells; 10^-5 M, HL-60): 51.6%
inhibition at 1 µM (HL-60 cells; 10^-6 M, HL-60): 34 ± 7.1%
inhibition at 0.1 µM (HL-60 cells; 10^-7 M, HL-60): 11.5 ± 4.2%

SMILES: CC(=O)c1cc2cc(Cl)c(OC(=O)/C=C(C)/C=C/C=C(C)/C=C/C3=C(C)CCCC3(C)C)cc2oc1=O [Compound I-6]
EC50 [3, 9]: 600 nM
inhibition of croton oil induced ODC activity [5]: significantly inhibited the ODC activity induced by croton oil
Lipid Peroxidation ([4]; 2 μM): 2.16 ± 0.18 μM MDA/mg protein
Lipid Peroxidation ([4]; 20 μM): 2.13 ± 0.19 μM MDA/mg protein
Inhibition (%), TA100 ([6]; 0.1 mg/plate): 12.8%
his+ -revertants/per plate, TA100 ([6]; 0.1 mg/plate): 971.3 ± 102.7 revertants/per plate
Inhibition (%), TA100 ([6]; 0.5 mg/plate): 15.5%
his+ -revertants/per plate, TA100 ([6]; 0.5 mg/plate): 947.3 ± 60.3 revertants/per plate
Inhibition (%), TA102 ([7]; 0.1 mg/plate): 13.8%
his+ -revertants/per plate, TA102 ([7]; 0.1 mg/plate): 1560 ± 40.0 revertants/per plate
Inhibition (%), TA102 ([7]; 0.5 mg/plate): 26.6%
his+ -revertants/per plate, TA102 ([7]; 0.5 mg/plate): 1375 ± 241.5 revertants/per plate

SMILES: CC(=O)c1cc2c(OC(=O)/C=C(C)/C=C/C=C(C)/C=C/C3=C(C)CCCC3(C)C)cc(OC(=O)/C=C(C)/C=C/C=C(C)/C=C/C3=C(C)CCCC3(C)C)cc2oc1=O [Compound I-10]
EC50 [3, 9]: 13 nM
inhibition of croton oil induced ODC activity [5]: significantly inhibited the ODC activity induced by croton oil
Delayed Calcification, Occipital delay/fetus ([1]; 20 mg/kg): 22/66
Delayed Calcification, Sternum delay/fetus ([1]; 20 mg/kg): 14/66
Delayed Calcification, Occipital delay/fetus ([1]; 40 mg/kg): 15/81
Delayed Calcification, Sternum delay/fetus ([1]; 40 mg/kg): 21/81
Animals, final (chondrosarcoma in rats; 5 mg/kg p.o., 12 days, 10 animals initial): 10
Inhibition rate (%) (chondrosarcoma in rats; 10 mg/kg p.o.): 9.8%
Animals, final (chondrosarcoma in rats; 10 mg/kg p.o., 12 days, 10 animals initial): 9
Animals, final (chondrosarcoma in rats; 20 mg/kg p.o., 12 days, 10 animals initial): 9
Inhibition rate (%) (chondrosarcoma in rats; 20 mg/kg p.o., P < 0.05): 42.2%

SMILES: CC1=C(/C=C/C(C)=C/C=C/C(C)=C/C(=O)Nc2ncnc3c2ncn3C(=O)/C=C(C)/C=C/C=C(C)/C=C/C2=C(C)CCCC2(C)C)C(C)(C)CCC1 [II-A]
Implanted Number (fetus absorption in mice; 20 mg/kg, 12 pregnant mice): 141
Absorbed Number (fetus absorption in mice; 20 mg/kg, 12 pregnant mice, 141 implanted): 10
Implanted Number (fetus absorption in mice; 40 mg/kg, 15 pregnant mice): 181
Absorbed Number (fetus absorption in mice; 40 mg/kg, 15 pregnant mice, 181 implanted): 17
Cleft Palate (%) ([1]; 20 mg/kg): 0%
Delayed Calcification (%), Occipital ([1]; 20 mg/kg): 7.6%
Delayed Calcification (%), Sternum ([1]; 20 mg/kg): 9.0%
Cleft Palate (%) ([1]; 40 mg/kg): 0%
Delayed Calcification (%), Occipital ([1]; 40 mg/kg): 7.2%
Delayed Calcification (%), Sternum ([1]; 40 mg/kg): 7.2%
Inhibition rate (%) (chondrosarcoma in rats; 2 mg/kg ×10): 49.5%
Tumor Weight (chondrosarcoma in rats; 2 mg/kg ×10): 5.4 grams
Animals, final (chondrosarcoma in rats; 2 mg/kg ×10, 10 animals initial): 9
Animals, final (chondrosarcoma in rats; 5 mg/kg ×10, 10 animals initial): 9

EC50 [3, 10]: > 10000 nM
IC50 (HCT-8 cell line): 4 µM
IC50 (A2780 cell line): > 10 µM
IC50 (KB cell line): > 10 µM
SMILES: CC1=C(/C=C/C(C)=C/C=C/C(C)=C/C(=O)Nc2nc3c(ncn3C(=O)/C=C(C)/C=C/C=C(C)/C=C/C3=C(C)CCCC3(C)C)c(=O)[nH]2)C(C)(C)CCC1 [II-D]
IC50 (BEL 7402 cell line): 5 µM

EC50 [3, 10]: > 10000 nM
IC50 (HCT-8 cell line): > 10 µM
IC50 (A2780 cell line): > 10 µM
IC50 (KB cell line): > 10 µM
SMILES: CC1=C(/C=C/C(C)=C/C=C/C(C)=C/C(=O)n2cnc3c(=O)[nH]c(N)nc32)C(C)(C)CCC1 [II-F]
IC50 (BEL 7402 cell line): > 10 µM

SMILES: O=c1ccc2ccccc2o1 [coumarin]
teratogenicity [8]: not teratogenic

SMILES: O=c1c(-c2ccc(O)cc2)coc2cc(O)ccc12 [diadzein]
melanoma cell growth (melanoma cell growth): inhibits melanoma cell growth
